# Reference: US11110168B2, “Nanoparticles, controlled-release dosage forms, and methods for delivering an immunotherapeutic agent” (NORTH CAROLINA STATE UNIVERSITY, priority 2016, dated 2021)
# B1: cDNCs (with CpG, without cutting sites): control DNA nano-cocoon with CpG, without HhaI cutting sites (nucleic acid)
# chain: ATATGTCGTCGTTCGAACGACGTTATATAACGTCGTTCGAACGACGTTATATGTCGTCGTTCGAACGACGTT
# modifications: listed as DNA, chemistry not fully specified; the letters are possibly those of the target site
# Legend:
# [1] = test system: restriction enzyme HhaI; assay: Digestion of DNCs by restriction enzyme HhaI, gel electrophoresis; assay type: biochemical; conditions: treated with HhaI
# Protocol: Release studies were performed at 37° C. with constant agitation in PBS+10% fetal ovine serum. PBS, MMP-9 (500 ng/mL, Sigma) or Lipase (10 000 U, Sigma) were added to samples to study the DNA and antibody release. The DNA disintegration was analyzed by agarose gel electrophoresis using 1% (w/v) agarose gel and the antibody release was determined by IgG total ELISA kit (eBioscience).
# Two different control DNCs (cDNC) with a non-specific sequence were synthesized (Table 1) to verify the design.
# As shown in agarose gels (FIG. 7), without HhaI treatment, these cDNCs cannot migrate in the gel as DNCs.
# [2] = In vivo retention and biodistribution after MN administration in mice bearing B16F10 melanoma; design: species or system mouse; conditions: for Cy5.5 signal around the melanoma site (retention): MN administration, imaging day 1, day 3, day 5
# Protocol: HA-NPs formulation with conjugated 1-MT and encapsulated aPD1 can improve their physicochemical properties. Therefore, the in vivo kinetics of free aPD1/1-MT and NPs following MN administration were evaluated in the mice model bearing B16F10 melanoma. The drug retention capability was tested at the tumor site after the MN administration. In vivo […] imaging was conducted at day 1, day 3 and day 5 post injection of the MN loaded with aPD1 and Cy5.5-1-MT-HA or free Cy5.5-1-MT. […] A similar pattern was observed compared to the biodistribution at the tumor site and other organs in the control group. […] The sustained high concentrations of the drugs within tumor regions as well as in peripheral circulation would enhance the immune system capability to treat not only primary tumor but also metastatic tumors in the body.
# For the fluorescent NPs, Cyanine5.5 NHS ester (Lumiprobe, Cy5.5) was covalently coupled to the primary amines of the aPD1 and 1-MT. The Cy5.5 was dissolved in anhydrous DMSO immediately before use, at a concentration of 10 mg/ml. Cy5.5 and 1-MT reacted at optimal ratio of 5:1. For the conjugation with aPD1, 40 μg Cy5.5 per mg of antibody was mixed immediately. The tube was wrapped in foil and incubated at room temperature for 1 hour. The unreacted Cy5.5 was removed and the aPD1 was exchanged by gel filtration using Sephadex G-25M.
Molecule,cleavage by HhaI (gel electrophoresis) [1],Cy5.5 signal around the melanoma site (retention) [2],biodistribution in the tumor and the major organs ([2]; Cy5.5-labeled 1-MT after MN administration)
"cDNC (with cutting sites, without CpG): control DNA nano-cocoon with HhaI cutting sites, without CpG (GTATTATTTCGAAATAATTTGTATTATT; 5' phosphate, chemistry not fully specified; the letters are possibly those of the target site)",readily cut into smaller homogeneous fragments,,
1-methyl-DL-tryptophan [1-MT],,little signal could be detected,
"Cn1cc(CC(N)C(=O)O)c2ccccc21 (racemic) [1-MT, 1-methyl-DL-tryptophan]",,quickly cleaved from the patch and eliminated by the body within one day,highest accumulations in the tumor followed by the lung and liver
B1,resistant to cleavage by HhaI,,
